In PubChem BioAssay (NCI):
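These data come from cells grown in 96-well plates and exposed to compound for 48 hours at five concentrations. The concentration for 50% growth inhibition is given as GI50. At the TGI there is no net growth.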

Assays:
Test in all cases: inhibition of tumour cell growth, NCI panel, 48 h
[1] = system: M14 melanoma
[2] = system: MDA-MB-231 breast
[3] = system: MDA-MB-435
[4] = system: NCI-H522 lung
[5] = system: NCI/ADR-RES ovarian
[6] = system: OVCAR-4 ovarian
[7] = system: SK-MEL-2 melanoma
[8] = system: UACC-62 melanoma
[9] = system: A498 renal
[10] = system: BT-549 breast

Row | Structure (SMILES) | GI50 [1] [µM] | TGI [1] [µM] | GI50 [2] [µM] | TGI [2] [µM] | GI50 [3] [µM] | TGI [3] [µM] | GI50 [4] [µM] | TGI [4] [µM] | GI50 [5] [µM] | TGI [5] [µM] | GI50 [6] [µM] | TGI [6] [µM] | GI50 [7] [µM] | TGI [7] [µM] | GI50 [8] [µM] | TGI [8] [µM] | TGI [9] [µM] | GI50 [9] [µM] | GI50 [10] [µM] | TGI [10] [µM]
1 | O=S(=O)(O)ONC1=NCCN1 | > 100 | > 100 | > 100 | > 100 | > 100 | > 100 | > 100 | > 100 | > 100 | > 100 | > 100 | > 100 | > 100 | > 100 | > 100 | > 100 | – | – | – | –
2 | CN(C)CCNc1nc(-c2cccs2)cc(-c2cccs2)n1 | – | 27 | – | – | – | – | – | – | – | – | – | – | – | 32.9 | – | 37.4 | 25.4 | – | – | –
3 | COC(=O)Cc1nc2ccccc2o1 | – | > 100 | – | – | – | – | – | > 100 | – | – | – | > 100 | – | > 100 | – | 49.3 | > 100 | – | – | –
4 | CCc1nc(-n2c(-c3ccccc3)nc3ccccc3c2=O)nc(N)c1-c1ccc(Cl)cc1 | 6.22 | > 100 | > 100 | > 100 | 3.48 | > 100 | 52.2 | > 100 | – | – | > 100 | > 100 | – | – | 6.55 | > 100 | 92.7 | 25 | 90.7 | > 100
5 | Oc1ccc(Cl)cc1-c1cc(-c2ccc(F)cc2)n[nH]1 | 3.5 | 17.2 | 1.19 | 4.35 | 2.53 | 10.7 | – | – | 2.19 | 6.98 | 0.593 | > 100 | 4.11 | 19.3 | 2.42 | 9.5 | 6.85 | 2.21 | 3.59 | 16.6
6 | C[N+](C)([O-])CCCNc1ccnc2cccc([N+](=O)[O-])c12 | – | > 100 | – | > 100 | – | > 100 | – | 28 | – | – | – | 55.3 | – | 45.8 | – | > 100 | > 100 | – | – | > 100
7 | COc1cc([C@@H]2c3cc4c(cc3C[C@H]3COC(=O)[C@@H]32)OCO4)cc2c1OCO2 | – | > 100 | – | < 0.0224 | – | < 0.01 | – | > 100 | – | < 0.01 | – | > 100 | – | < 0.01 | – | > 100 | – | – | – | –
8 | CCOC(=O)NC(=O)c1c[nH]c(=O)[nH]c1=O | – | > 100 | – | – | – | – | – | – | – | – | – | > 100 | – | > 100 | – | > 100 | > 100 | – | – | –
9 | Cc1ccc(S(=O)OC23CC4CC(CC(C4)C2)C3)cc1 (stereo not given) | – | > 100 | – | – | – | – | – | > 100 | – | – | – | > 100 | – | – | – | > 100 | > 100 | – | – | –
10 | O=C1c2ccn(CCCCN3CCC(O)CC3)c2C(=O)c2c1c(O)c1ccccc1c2O | 1.95 | 3.69 | 13.3 | 38.3 | – | – | 2.86 | 14.4 | 78.8 | > 100 | 17.9 | > 64.4 | 2.45 | 8.32 | 2.13 | 5.36 | 55.4 | 23.7 | 13.2 | 51.6
11 | O=C(c1ccccc1)C1C(C(=O)c2ccccc2)C(c2ccccc2)N(c2ccccc2)C1c1ccccc1 (stereo not given) | – | > 100 | – | > 100 | – | > 100 | – | > 100 | – | > 100 | – | – | – | > 100 | – | > 100 | – | – | – | > 100
12 | COc1ccc(C(=O)O/N=C2/CCC/C2=C\c2ccccc2)cc1 | – | > 100 | – | – | – | – | – | > 100 | – | – | – | > 100 | – | > 100 | – | > 100 | > 100 | – | – | –
13 | CN(C)CC1CCCC/C1=N/OC(=O)c1ccc(Cl)c(Cl)c1 (stereo not given) | – | > 100 | – | – | – | – | – | > 100 | – | – | – | > 100 | – | > 100 | – | > 100 | > 100 | – | – | –
14 | OCC(O)C(OC1OC(CO)C(O)C(O)C1O)c1nn(-c2ccccc2)c2nc3cc(Cl)ccc3nc12 (stereo not given) | – | > 100 | – | – | – | – | – | > 100 | – | – | – | > 100 | – | – | – | > 100 | > 100 | – | – | –
15 | COc1ccc(C2=NOP(c3ccccc3)(c3ccccc3)(c3ccccc3)C2)cc1 | – | 41.9 | – | – | – | – | – | 25.1 | – | – | – | > 100 | – | > 60 | – | 53.2 | 89.7 | – | – | –
16 | Cc1ccc(NC(=O)CCC(=O)C(C#N)c2ccccc2)cc1C (stereo not given) | – | > 100 | – | – | – | – | – | > 100 | – | – | – | > 100 | – | > 100 | – | > 100 | > 100 | – | – | –
17 | CN(C)CCNc1nc2ccccc2c2c(=O)c3ccccc3sc12 | 1.86 | 3.62 | 1.34 | 3.64 | 1.83 | 3.42 | 1.7 | 3.41 | 1.96 | 6.43 | 2.85 | 11.1 | 1.78 | 3.41 | 1.73 | 3.68 | – | – | 1.88 | 3.67
18 | C[N+](C)(C)CC1CCCC/C1=N\O (stereo not given) | – | > 100 | – | – | – | – | – | > 100 | – | – | – | > 100 | – | > 100 | – | > 100 | > 100 | – | – | –
19 | O=C(/C(=C/c1ccccc1)c1ccccc1)N1c2ccccc2CC1c1c[nH]c2ccccc12 (stereo not given) | – | > 100 | – | – | – | – | – | > 100 | – | – | – | > 100 | – | 81.9 | – | > 100 | > 100 | – | – | –
20 | C#CCN(C)C(=O)N(CC#C)N=O | – | > 100 | – | – | – | – | – | > 100 | – | – | – | > 100 | – | > 100 | – | > 100 | > 100 | – | – | –
21 | Nc1c(-c2nc3ccccc3[nH]2)sc(=S)n1-c1ccc(Cl)cc1 | – | 82.7 | – | – | – | – | – | 58.1 | – | – | – | 40.4 | – | 63.8 | – | 48.4 | 88.2 | – | – | –
22 | Cc1nnc(-c2ccc(-c3nc4ccccc4o3)cc2)o1 | > 100 | > 100 | 36.3 | > 100 | > 100 | > 100 | > 100 | > 100 | > 100 | > 100 | – | – | > 100 | > 100 | 36.8 | > 100 | – | – | 65.5 | > 100
23 | COc1ccc2nc3cccc(C(=O)NCCN(C)C)c3nc2c1 | – | – | – | – | – | – | – | > 100 | – | – | – | 8.72 | – | 3.68 | – | – | 3.34 | – | – | –
24 | Nc1nc(N)c(-c2ccccc2)c(CCC(=O)Nc2ccc(Cl)cc2)n1 | – | > 100 | – | – | – | – | – | > 100 | – | – | – | > 100 | – | > 100 | – | > 100 | > 100 | – | – | –
